Here are results for one compound from article PMC7693160 (Pharmaceutics, 2020).

A short description of series [1]: Equilibrium solubility, Uniprep method, 24 h at 37 °C. Format: physicochemical. The procedure: The solubility of FLU was investigated in various aqueous and biorelevant dissolution media using the Uniprep system (Whatman, Piscataway, NJ, USA). All aqueous buffers were prepared according to the European Pharmacopoeia, while the biorelevant media were prepared according to Markopoulos et al. and Fuchs et al.. An excess amount of API was added to 3 mL of dissolution medium and the samples were incubated for 24 h at 37 °C on an orbital mixer. The samples were then filtered through the 0.45 μm polytetrafluoroethylene (PTFE) filter integrated in the Uniprep system. The filtrate was immediately diluted with mobile phase and analyzed by high-performance liquid chromatography (HPLC) (see Section 2.5). All measurements were performed at least in triplicate (n ≥ 3) and the final pH was recorded. […] Whatman, Piscataway, NJ, USA) and subsequently, after appropriate dilution with mobile phase, analyzed by HPLC-UV (Hitachi Chromaster; Hitachi Ltd., Tokyo, Japan or Spectra System HPLC, ThermoQuest Inc., San Jose, CA, USA). A BDS Hypersil C18, 5 μm, 150 × 4.6 mm (Thermo Scientific, Waltham, MA, United States) analytical column combined with a pre-column (BDS Hypersil C-18, 3μm, 10 × 4mm) was used. The mobile phase consisted of water adjusted to pH = 3.0 with trifluoroacetic acid (TFA) and acetonitrile (49.5:0.5:50% v/v). The detection wavelength was set at 247 nm, the flow rate at 1.0 mL/min, and the injection volume at 20 μL. Using this method, the retention time was approximately 6.8 min.

The next series relates to CYP2C9 1*/1*. Conditions: Recombinant CYP (fu,mic = 1), cited from earlier work.

≈ marks a conversion by molar mass, not a printed value. Like-named read-outs stand apart in the source and are kept apart here.

What is called solubility is how much of the substance goes into solution per volume. Consider `CC(C(=O)O)c1ccc(-c2ccccc2)c(F)c1` (stereo not drawn) [flurbiprofen], for which the solubility at 24 h in series [1] (37 °C, aqueous buffer, thermodynamic from solid, Acetate buffer (pH = 4.5), pHfinal 4.7, read-out: Solubility, mean (SD)) worked out at 101 µg/mL (≈ 414 µM); in series [1] (37 °C, aqueous buffer, thermodynamic from solid, Phosphate buffer (pH = 6.5), pHfinal 6.1, read-out: Solubility, mean (SD)), 2020 µg/mL (≈ 8290 µM); in series [1] (37 °C, aqueous buffer, thermodynamic from solid, Phosphate buffer (pH = 6.8), pHfinal 6.3, read-out: Solubility, mean (SD)), 3130 µg/mL (≈ 12800 µM); in series [1] (37 °C, fassgf or other biorelevant, thermodynamic from solid, Level III FaSSGF (pH = 1.6), pHfinal 1.6, read-out: Solubility, mean (SD)), 18.5 µg/mL (≈ 75.7 µM); in series [1] (37 °C, thermodynamic from solid, FaSSGF Level I (pH = 1.6), pHfinal 1.6, read-out: Solubility, mean (SD)), 18.1 µg/mL (≈ 74.1 µM); in series [1] (37 °C, thermodynamic from solid, FeSSIF V1 Level I (pH = 5.0), pHfinal 5.1, read-out: Solubility, mean (SD)) it was 225 µg/mL (≈ 923 µM). Also, the solubility at 24 h in series [1] (37 °C, thermodynamic from solid, Level II FaSSIF V1 (pH = 6.5), pHfinal 6.0, read-out: Solubility, mean (SD)) stood at 1950 µg/mL (≈ 8000 µM); in series [1] (37 °C, thermodynamic from solid, Level II FaSSIF V3 (pH = 6.7), pHfinal 5.9, read-out: Solubility, mean (SD)) it was 1590 µg/mL (≈ 6490 µM); in series [1] (aqueous buffer (FaSSGF Level I), pH 1.6, minimum experimentally measured value, read-out: S0 (intrinsic solubility)), 18 µg/mL (≈ 73.7 µM). Moreover, the “CYP2C9 1*/3*-Vmax” value in the series on CYP2C9 1*/3* was 9.55 pmol/min/pmol CYP. For the same compound, the “CYP2C9 1*/1*-Vmax” value with CYP2C9 1*/1* was 15.79 pmol/min/pmol CYP. Moreover, in the series with CYP2C9 1*/1* (read-out: CYP2C9 1*/1*-Km), the Km was 8.76 µM.
